Measurements: US20250270200A1, “CTPS1 INHIBITORS AND USES THEREOF” (Nimbus Clotho, Inc., priority 2022, published 2025)
Structures can show the parent of a compound that is named as a salt. Where two headings read alike, the source gives them in different places.

Biological target: T1, human CTPS1 (Homo sapiens, UniProt P17812)
T1 sequence (P17812 1-591): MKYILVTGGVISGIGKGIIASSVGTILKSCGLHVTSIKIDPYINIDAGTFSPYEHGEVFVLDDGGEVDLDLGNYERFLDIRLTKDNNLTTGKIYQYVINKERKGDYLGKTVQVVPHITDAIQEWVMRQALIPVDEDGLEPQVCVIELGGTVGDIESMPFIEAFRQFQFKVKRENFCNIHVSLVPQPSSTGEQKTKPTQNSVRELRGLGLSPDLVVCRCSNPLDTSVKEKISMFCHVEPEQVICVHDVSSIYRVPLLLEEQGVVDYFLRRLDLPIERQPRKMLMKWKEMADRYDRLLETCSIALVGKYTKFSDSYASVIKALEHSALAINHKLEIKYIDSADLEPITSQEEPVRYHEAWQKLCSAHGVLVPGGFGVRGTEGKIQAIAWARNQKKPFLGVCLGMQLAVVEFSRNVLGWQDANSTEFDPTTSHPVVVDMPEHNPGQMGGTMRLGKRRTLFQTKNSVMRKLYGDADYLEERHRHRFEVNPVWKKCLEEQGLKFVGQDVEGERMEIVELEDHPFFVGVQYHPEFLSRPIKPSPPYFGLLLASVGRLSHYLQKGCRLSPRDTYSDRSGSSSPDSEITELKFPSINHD
Experiment: ADP-Glo assay, human CTPS1 enzyme inhibition
Assay type: biochemical
Details: read-out: ADP-Glo_WT_hCTPS1—25 nM_IC50 (IC50)
Method: The enzyme inhibitory activities of the compounds of the invention against the target of interest were determined using the ADP-Glo™ assay (Promega). Assays for human CTPS1 and CTPS2 were performed in 1× assay buffer containing 50 mM HEPES (Life Technologies), 10 mM Mg2+, 5 mM KCl, 2 mM DTT, 0.01% F-127, pH to 7.4 accordingly. All reagents are from Sigma-Aldrich, unless specified otherwise. Purified human full length active N-terminal FLAG-8×HIS-TEV tagged CTPS1 (UniprotKB—P17812, […]-CTPS1[1-591]) was generated using a mammalian expression system at Viva Biotech (Shanghai) Ltd.
Purified human CTPS1 protein was prepared in 1× assay buffer to the final working protein concentration required for the reaction. A 2.5 μL volume per well of human CTPS 1 protein was mixed with 0.1 μL per well of test compound dissolved in DMSO and pre-incubated at 25 degrees C. for 10 minutes. 2.5 μL per well of the reaction precursors ATP (UltraPure ATP from ADP-Glo™ kit) and UTP were then added and pre-incubated for an additional 10 minutes at 25 degrees C. Finally, the reaction was initiated by the addition of 5 μL of the reaction precursors L-glutamine and GTP. The final concentration of all reaction components in the assay: ATP (120 μM), UTP (160 μM), GTP (60 μM), L-Glutamine (100 μM), DMSO (1%), hCTPS1 (25 nM). This mixture was incubated for an appropriate amount of time within the determined linear phase of the reaction at 25 degrees C. under sealed plate conditions with constant agitation at 500 revolutions per minute (rpm). ADP-Glo™ reagent was added for 60 minutes (10 μL per well) and subsequently ADP-Glo™ development reagent was added for 60 minutes (20 μL per well) prior to signal detection in a microplate reader (Envision Multilabel Reader, Perkin Elmer). Following each reagent addition over the course of the assay, assay plates were pulse centrifuged for 1 minute at 1000 rpm.
The enzyme converts ATP to ADP and the ADP-Glo™ reagent subsequently depletes any remaining ATP in the reaction system. The ADP-Glo™ detection reagents converts the ADP that has been produced by the enzyme back into ATP, which is then utilized as a substrate together with luciferin for the enzyme luciferase. Light generated by this chemiluminescent reaction is quantified and is directly proportional to the amount of ADP produced by the CTPS1 enzyme reaction. […]

[1] = wild-type human CTPS1, 25 nM enzyme, ADP-Glo
[2] = wild-type human CTPS1 25 nM, ATP 120 μM, UTP 160 μM, GTP 60 μM, L-glutamine 100 μM, 25 degrees C.

Work on `CCOc1cncc(-c2cnc(C(=O)N[C@@H](CN3CCN(C4CC4)CC3)c3cccc(NS(=O)(=O)C(F)F)c3)s2)n1` (single isomer, unassigned) [I-41] yielded an IC50 [1] of 5 to 25 nM.
`O=C(N[C@@H](CCN1CCCCC1)c1cc(NS(=O)(=O)C2CC2)ccn1)c1ncc(-c2cnn3ccc(Cl)cc23)s1` (single isomer, unassigned) [I-9] showed an IC50 [1] greater than 100 nM.
For `O=C(N[C@H](c1cccc(NS(=O)(=O)C(F)F)c1)C1CCOCC1)c1ncc(-c2cnn3ccc(Cl)cc23)s1` [I-196, (S)-5-(5-chloropyrazolo[1,5-a]pyridin-3-yl)-N-((3-((difluoromethyl)sulfonamido)phenyl)(tetrahydro-2H-pyran-4-yl)methyl)thiazole-2-carboxamide], the IC50 [1] was 5 to 25 nM.
Compound `CCOc1cncc(-c2cnc(C(=O)N[C@H](c3cccc(NS(=O)(=O)C(F)F)c3)C3CCOCC3)s2)n1` [I-194, (S)-N-((3-((difluoromethyl)sulfonamido)phenyl)(tetrahydro-2H-pyran-4-yl)methyl)-5-(6-ethoxypyrazin-2-yl)thiazole-2-] has an IC50 [1] of 5 to 25 nM.
`CCOc1cncc(-c2ccc(C(=O)N[C@@H](COC)c3cc(NS(=O)(=O)C4CC4)ccn3)c(F)c2)n1` [I-282, (R)-N-(1-(4-(cyclopropanesulfonamido)pyridin-2-yl)-2-methoxyethyl)-4-(6-ethoxypyrazin-2-yl)-2-fluorobenzamide] gave an IC50 [1] of 25 to 50 nM.
Compound `O=C(N[C@H](c1cc(NS(=O)(=O)C2CC2)ccn1)[C@H]1COCCO1)c1ncc(-c2cnn3ccc(Cl)cc23)s1` [I-77, 5-(5-chloropyrazolo[1,5-a]pyridin-3-yl)-N-((R)-(4-(cyclopropanesulfonamido)pyridin-2-yl)((S)-1,4-dioxan-2-yl)methyl)thiazole-2-carboxamide] has an IC50 [1] of 5 to 25 nM.
`CCOc1cncc(-c2cnc(C(=O)N[C@@H](Cn3ccccc3=O)c3cc(NS(=O)(=O)C4CC4)ccn3)s2)n1` [I-140, (S)-N-(1-(4-(cyclopropanesulfonamido)pyridin-2-yl)-2-(2-oxopyridin-1(2H)-yl)ethyl)-5-(6-ethoxypyrazin-2-yl)thiazole-2-carboxamide] gave an IC50 [1] of 5 to 25 nM.
`CCOc1cncc(-c2cnc(C(=O)NC3(c4cc(NS(=O)(=O)C5CC5)ccn4)CCN(C)C3)s2)n1` (stereo not shown) [I-182, N-(3-(4-(cyclopropanesulfonamido)pyridin-2-yl)-1-methylpyrrolidin-3-yl)-5-(6-ethoxypyrazin-2-yl)thiazole-2-carboxamide, formic acid salt] was tested, and the IC50 [1] was 5 to 25 nM.
`CCOc1cncc(-c2cnc(C(=O)N[C@@H](CN3C[C@H]4COC[C@H]4C3)c3cc(NS(=O)(=O)C4CC4)ccn3)s2)n1` (single isomer, unassigned) [I-30] showed an IC50 [1] of 25 to 50 nM.
In the case of `CCOc1cncc(-c2cnc(C(=O)N[C@H](c3nccc(NS(=O)(=O)C4CC4)c3F)[C@H]3CCOC3)s2)n1` (single isomer, unassigned) [II-17], the IC50 [2] is reported as 5 to 25 nM.
For `COC[C@H](NC(=O)c1ncc(-c2cnn3ccc(Cl)cc23)s1)c1nccc(NS(=O)(=O)C2CC2)c1F` (single isomer, unassigned) [II-1], the IC50 [2] was 5 to 25 nM.
`CCOc1cncc(-c2cnc(C(=O)N[C@@H](c3cc(NS(=O)(=O)C4CC4)ccn3)[C@@H](C)OC)s2)n1` [I-46, N-((1S,2R)-1-(4-(cyclopropanesulfonamido)pyridin-2-yl)-2-methoxypropyl)-5-(6-ethoxypyrazin-2-yl)thiazole-2-carboxamide] showed an IC50 [1] of 5 to 25 nM.
Compound `CCOc1cncc(-c2cnc(C(=O)N[C@@H](CN3CCCC3)c3cc(NS(=O)(=O)C4CC4)ncn3)s2)n1` [I-250, (S)-N-(1-(6-(cyclopropanesulfonamido)pyrimidin-4-yl)-2-(pyrrolidin-1-yl)ethyl)-5-(6-ethoxypyrazin-2-yl)thiazole-2-carboxamide] has an IC50 [1] of 25 to 50 nM.
For `CCOc1cncc(-c2cnc(C(=O)N[C@@H](c3cc(NS(=O)(=O)C4CC4)ccn3)[C@H]3CC(=O)N(C)C3)s2)n1` [I-122, N-((R)-(4-(cyclopropanesulfonamido)pyridin-2-yl)((S)-1-methyl-5-oxopyrrolidin-3-yl)methyl)-5-(6-ethoxypyrazin-2-yl)thiazole-2-carboxamide], the IC50 [1] was 5 to 25 nM.
For `O=C(N[C@@H](c1nccc(NS(=O)(=O)C2CC2)c1F)[C@@H]1CCOC1)c1ncc(-c2cnn3ccc(Cl)cc23)s1` (single isomer, unassigned) [II-4], the IC50 [2] was 5 to 25 nM.
Work on `CCOc1cncc(-c2cnc(C(=O)NC(c3cc(NS(=O)(=O)C4CC4)ccn3)C3CN(C)CCO3)s2)n1` (single isomer, unassigned) [I-106, N-((4-(cyclopropanesulfonamido)pyridin-2-yl)(4-methylmorpholin-2-yl)methyl)-5-(6-ethoxypyrazin-2-yl)thiazole-2-carboxamide] yielded an IC50 [1] of 5 to 25 nM.
`CCOc1cncc(-c2cnc(C(=O)N[C@@H](c3cc(NS(=O)(=O)C4CC4)ccn3)[C@@H]3CN(C)CCO3)s2)n1` [I-101, N-((S)-(4-(cyclopropanesulfonamido)pyridin-2-yl)((S)-4-methylmorpholin-2-yl)methyl)-5-(6-ethoxypyrazin-2-yl)thiazole-2-carboxamide] was tested, and the IC50 [1] was 5 to 25 nM.
For `CCOc1cncc(-c2cnc(C(=O)NCc3cc(NS(=O)(=O)C4CC4)ncn3)s2)n1` [I-5, N-((6-(cyclopropanesulfonamido)pyrimidin-4-yl)methyl)-5-(6-ethoxypyrazin-2-yl)thiazole-2-carboxamide], the IC50 [1] was 5 to 25 nM.
With `CCOc1cncc(-c2cnc(C(=O)N[C@H](CCN3CCCC4(CC4)C3)c3cc(NS(=O)(=O)C4CC4)ccn3)s2)n1` (single isomer, unassigned) [I-17] the IC50 [1] was no more than 5 nM.
`CCOc1cncc(-c2ccc(C(=O)N[C@@H](COC)c3cc(NS(=O)(=O)C4CC4)ccn3)cc2)n1` [I-279, (R)-N-(1-(4-(cyclopropanesulfonamido)pyridin-2-yl)-2-methoxyethyl)-4-(6-ethoxypyrazin-2-yl)benzamide] showed an IC50 [1] of 5 to 25 nM.
`CCOc1cncc(-c2cnc(C(=O)N[C@@H](c3cc(NS(=O)(=O)C4CC4)ncn3)[C@@H]3CCOC3)s2)n1` [I-257, N-((R)-(6-(cyclopropanesulfonamido)pyrimidin-4-yl)((S)-tetrahydrofuran-3-yl)methyl)-5-(6-ethoxypyrazin-2-yl)thiazole-2-carboxamide] was tested, and the IC50 [1] was 5 to 25 nM.
`C[C@H](CO)[C@H](NC(=O)c1ncc(-c2cnn3ccc(Cl)cc23)s1)c1cc(NS(=O)(=O)C2CC2)ccn1` [I-233, 5-(5-chloropyrazolo[1,5-a]pyridin-3-yl)-N-((1S,2S)-1-(4-(cyclopropanesulfonamido)pyridin-2-yl)-3-hydroxy-2-methylpropyl)thiazole-2-carboxamide] showed an IC50 [1] of 5 to 25 nM.
With `CCOc1cncc(-c2cnc(C(=O)N[C@H](CN3CC[C@](C)(O)C3)c3cccc(NS(=O)(=O)C(F)F)c3)s2)n1` [I-208, N-((S)-1-(3-((difluoromethyl)sulfonamido)phenyl)-2-((S)-3-hydroxy-3-methylpyrrolidin-1-yl)ethyl)-5-(6-ethoxypyrazin-2-yl)thiazole-2-carboxamide, formic acid salt] the IC50 [1] was 5 to 25 nM.
For `CCOc1cncc(-c2cnc(C(=O)N[C@@H](CN3CCOC[C@H]3C)c3cc(NS(=O)(=O)C4CC4)ccn3)s2)n1` (single isomer, unassigned) [I-32], the IC50 [1] was 25 to 50 nM.
`CCOc1cncc(-c2cnc(C(=O)N[C@@H](CCN3CCC(F)CC3)c3cc(NS(=O)(=O)C4CC4)ccn3)s2)n1` (single isomer, unassigned) [I-15] gave an IC50 [1] of 50 to 100 nM.
